Measured values from article PMC9784215, “Silymarin Protects against Acute Liver Injury Induced by Acetaminophen by Downregulating the Expression and Activity of the CYP2E1 Enzyme” (Molecules, 2022).
Values belong to the compound of their own block, whether it stands above or below them.

How the values were obtained:
APAP-induced ALI mice = assay: APAP-induced ALI in mice: serum ALT/AST, liver reduced GSH, H&E histology; assay type: in vivo, mouse; details: APAP 350 mg/kg i.p., 24 h
Description: The levels of ALT and AST in mouse serum and reduced GSH in mouse livers were measured by West China Frontier Pharmatech (Chengdu, China).
The right lower lobe of the mouse liver was fixed with 4% paraformaldehyde for 24 h in preparation for H&E staining. The embedding and slicing processes for H&E staining were performed by Ao’Chuang Biotechnology Co., Ltd. (Chengdu, China). Images were acquired with a phase contrast microscope with 20× and 40× objective lenses. The scale bars were added with ImageJ software.

Cyp2e1 [1] = assay: Cyp2e1 mRNA and protein expression in mouse liver (RT-qPCR, Western blot); assay type: in vivo; details: mice, single i.p. APAP 350 mg/kg, 24 h
Text: Antibodies against CYP2E1 were kindly provided by Proteintech Biotechnology.

CYP2E1 [2] = biological target: T1, CYP2E1 (Rattus norvegicus, UniProt P05182); assay: Pharmacokinetics of probe substrate CLX and 6-OH-CLX in rats after 21 days of SM pretreatment; details: single oral 30 mg/kg CLX, solvent control group
T1 sequence (P05182 whole entry): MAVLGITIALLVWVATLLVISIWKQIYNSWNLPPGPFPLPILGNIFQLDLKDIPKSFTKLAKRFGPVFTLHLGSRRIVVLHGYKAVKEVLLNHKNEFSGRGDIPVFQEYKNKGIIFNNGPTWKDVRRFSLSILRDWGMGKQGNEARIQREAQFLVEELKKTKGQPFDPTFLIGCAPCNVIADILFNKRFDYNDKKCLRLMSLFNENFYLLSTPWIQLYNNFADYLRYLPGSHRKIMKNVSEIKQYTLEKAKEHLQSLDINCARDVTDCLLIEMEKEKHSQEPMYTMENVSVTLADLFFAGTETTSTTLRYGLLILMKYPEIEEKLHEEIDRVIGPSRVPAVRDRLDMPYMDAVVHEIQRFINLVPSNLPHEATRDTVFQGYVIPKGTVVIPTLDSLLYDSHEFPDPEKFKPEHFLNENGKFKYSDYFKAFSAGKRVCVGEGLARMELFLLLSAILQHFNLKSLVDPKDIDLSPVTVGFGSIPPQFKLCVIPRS
Description: (§1) SD rats were randomly divided into two groups (six rats in each group). One group was orally administered 4% HP-β-CD (w/v) solution as a solvent control group and the other group was orally administered SM 45 mg/kg (dissolved in 4% HP-β-CD (w/v)) for 21 consecutive days. On the 22nd day, rats in the two groups were given a single oral dose of CLX 30 mg/kg (suspended in 0.5% CMC-Na solution (w/v)). […] After the final blood collection, rats were euthanized by intraperitoneal injection of 50% urethane.
(§2) The concentrations of APAP and its metabolites in rat plasma and the concentrations of CLX and 6-OH-CLX in rat plasma, and the phase I metabolic system in vitro were determined by HPLC—MS/MS. […] Briefly, a 50 μL plasma sample was vortexed with 10 μL of the internal standard solution, and 150 μL pf methanol was then added to the mixture and shaken for 3 min to precipitate the protein. The sample was centrifuged at 14,000 rpm for 5 min, and 10 µL of the supernatant was analyzed by LC–MS/MS. […] The noncompartmental analysis using Phoenix WinNonlin software (version 6.3, Pharsight Corp, Mountain View, CA, USA) was used to calculate the pharmacokinetic parameters of CLX and 6-OH-CLX.

CYP2E1 [3] = biological target: CYP2E1 (Homo sapiens, UniProt P05181)
CYP2E1 (Homo sapiens, UniProt P05181), sequence (P05181 whole entry): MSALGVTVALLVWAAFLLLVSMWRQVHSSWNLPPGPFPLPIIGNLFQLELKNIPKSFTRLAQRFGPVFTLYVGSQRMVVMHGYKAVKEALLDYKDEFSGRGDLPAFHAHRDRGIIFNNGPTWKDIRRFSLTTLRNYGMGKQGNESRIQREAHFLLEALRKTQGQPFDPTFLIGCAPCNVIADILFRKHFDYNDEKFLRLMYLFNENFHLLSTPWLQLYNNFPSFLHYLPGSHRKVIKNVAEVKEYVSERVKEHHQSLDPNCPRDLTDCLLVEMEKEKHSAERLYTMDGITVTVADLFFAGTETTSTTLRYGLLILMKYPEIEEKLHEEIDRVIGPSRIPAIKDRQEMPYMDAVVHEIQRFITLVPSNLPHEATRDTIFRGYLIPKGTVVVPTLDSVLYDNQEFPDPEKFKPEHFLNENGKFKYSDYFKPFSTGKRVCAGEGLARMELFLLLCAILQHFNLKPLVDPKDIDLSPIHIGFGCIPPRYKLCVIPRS
Description: (§3) The probe substrate CLX, 50 mM potassium phosphate buffer (KPI, pH 7.4), and 0.25 mg/mL HLMS or RLMs were mixed and then an NADPH-regenerating system (1 mM β-NADP, 5 mM D-glucose-6-phosphate, 1 U/mL glucose-6-phosphate dehydrogenase, and 5 mM MgCl2) were added to initiate reaction. […] HLMs or RLMs were incubated with CLX at 37 °C for 30 min. At the end of the incubation, 100 µL of precooled acetonitrile was added to terminate the reaction. After vortexing and centrifugation at 14,000 rpm for 5 min, 50 µL of supernatant mixed with 10 µL of the internal standard GEN was removed, and the sample was analyzed by HPLC–MS/MS.
(§4) Activities were expressed as a percentage of 6-OH-CLX production in the blank control.
(§5) Nonlinear regression analysis in GraphPad was used to calculate Km and Vmax. To determine the inhibitory type of CYP2E1 by SM, the above data were plotted as a Lineweaver–Burk plot.
(§6) Inhibition data were plotted as Dixon plots, and the inhibition constant (Ki) was calculated from the regression equation.

CYP2E1 [4] = biological target: T1, CYP2E1; details: microsomes
Description: as §3, §4, §5, §6

CYP2E1 [5] = biological target: T1, CYP2E1; details: in vivo
Description: as §1, §2

- liver Cyp2e1 mRNA and protein expression vs solvent control group (Cyp2e1 [1]): significantly upregulated
Compound: CC(=O)Nc1ccc(O)cc1 [APAP, Acetaminophen]
- liver histopathology (H&E), hepatic lobule structure (APAP-induced ALI mice): severely damaged
- liver reduced GSH content vs solvent control group (APAP-induced ALI mice): significantly reduced
- serum ALT level vs solvent control group (APAP-induced ALI mice): significantly increased
- serum AST level vs solvent control group (APAP-induced ALI mice): significantly increased

Compound: O=c1[nH]c2cc(Cl)c(O)cc2o1 [6-OH-CLX]
- AUC0-t of 6-OH-CLX (CYP2E1 [2]): 287.58 ± 106.13 ng·h/mL
- AUC0-∞ of 6-OH-CLX (CYP2E1 [2]): 325.78 ± 127.17 ng·h/mL

- Km of CLX (CYP2E1 [3]): 1827 ± 318 µM
- Vmax of CLX (CYP2E1 [3]): 4.56 ± 1.67 nM/h/mg Protein
- IC50 (CYP2E1 [3]; microsomes): 14.8 µM
- Ki (CYP2E1 [3]; microsomes): 23.2 µM
- IC50 (CYP2E1 [4]): 26.1 µM
- Ki (CYP2E1 [4]): 9.49 µM
- CL of CLX (CYP2E1 [5]): 4.5353 ± 0.6998 mL/min/kg
- Vd of CLX (CYP2E1 [5]): 1.56626 ± 0.67478 L/kg
- t1/2 of CLX (CYP2E1 [5]): 3.92 ± 1.25 h
- tmax of CLX (CYP2E1 [5]): 0.58 ± 0.30 h
Compound: silymarin
